Measured values from patent US11814364B2, “Pyridine N-oxide derivatives useful as factor XIa inhibitors” (Janssen Pharmaceutica NV, priority 2021, dated 2023).
pIC50: −log10 of the molar value.

Target: human plasma kallikrein (Homo sapiens, UniProt P03952)
Assay: Kallikrein inhibition FLINT assay with quenched AMC peptide substrate Z-Gly-Pro-Arg-AMC (end point EP or kinetic KIN reads)
Format: biochemical
Settings: kinetic reads at 5 min intervals over 30 min; read-out: Kallikrein (KIN) IC50
In short: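 Enzyme and compound were preincubated 30 min before adding 50 μM AMC substrate in pH 7.5 Tris/NaCl/CaCl2/BSA/CHAPS buffer. AMC release was read at 30 min endpoint or every 5 min.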

Sequence of human plasma kallikrein (P03952 391-638 limits assumed): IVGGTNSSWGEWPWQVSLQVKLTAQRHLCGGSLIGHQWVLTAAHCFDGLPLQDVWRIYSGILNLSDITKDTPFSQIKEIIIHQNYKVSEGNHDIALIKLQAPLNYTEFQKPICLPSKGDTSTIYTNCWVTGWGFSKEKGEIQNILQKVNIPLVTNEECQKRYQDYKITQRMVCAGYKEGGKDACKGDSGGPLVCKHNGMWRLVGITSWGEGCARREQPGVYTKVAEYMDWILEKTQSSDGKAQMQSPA
Sequence of human plasma kallikrein (P03952 20-390 partner limits assumed): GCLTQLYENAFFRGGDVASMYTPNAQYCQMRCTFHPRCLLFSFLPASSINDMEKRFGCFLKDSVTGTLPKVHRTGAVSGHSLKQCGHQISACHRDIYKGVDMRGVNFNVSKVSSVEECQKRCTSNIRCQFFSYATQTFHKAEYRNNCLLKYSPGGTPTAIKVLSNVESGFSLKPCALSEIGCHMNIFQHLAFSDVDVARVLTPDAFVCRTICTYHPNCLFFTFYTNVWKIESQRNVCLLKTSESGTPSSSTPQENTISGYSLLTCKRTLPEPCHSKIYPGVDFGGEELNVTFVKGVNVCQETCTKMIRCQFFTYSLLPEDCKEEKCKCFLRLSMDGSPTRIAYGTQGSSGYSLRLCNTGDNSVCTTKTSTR

Compound | pIC50
COC(=O)Nc1ccc(-c2cnn(C(CC(C)C)c3ccc(-c4c(-n5cnnn5)ccc(Cl)c4F)c[n+]3[O-])c2)cc1 (stereo not shown) [Example P179] | 6.75
Cn1ccc(CC(c2ccc(-c3c(-n4cnnn4)ccc(Cl)c3F)c[n+]2[O-])n2cc(-c3ccnc(C(F)(F)F)c3)cn2)n1 (stereo not shown) [Example P377] | 8.68
[2H]C([2H])(C[C@@H](c1ccc(-c2c(-n3cnnn3)ccc(Cl)c2F)c[n+]1[O-])n1cc(-c2cn(C)nc2Cl)cn1)OC(F)F [Example P849] | 6.38
[2H]C([2H])(C[C@H](c1ccc(-c2c(-n3cc(C(F)(F)F)nn3)ccc(Cl)c2F)c[n+]1[O-])n1cc(-c2ncnn2C)cn1)OC(F)F [Example P834] | 7.17
Cn1ncnc1-c1cnn(C(CCOC(F)F)c2ccc(-c3c(-n4nncc4OC(F)F)ccc(Cl)c3F)c[n+]2[O-])c1 (single isomer, unassigned) [Example P800] | 7.20
[O-][n+]1cc(-c2c(-n3cnnn3)ccc(Cl)c2F)ccc1[C@@H](Cn1ccc(OC(F)F)n1)n1cc(-c2ccnc(C(F)(F)F)c2)cn1 [Example P533] | 8.11
[O-][n+]1cc(-c2c(-n3cc(Cl)nn3)ccc(Cl)c2F)ccc1[C@@H](CCOC(F)F)n1cc(-c2nncn2C(F)F)cn1 [Example P692] | 6.48
Cn1cncc1-c1cnn(C(Cn2cc(F)cn2)c2ccc(-c3c(-n4cnnn4)ccc(Cl)c3F)c[n+]2[O-])c1 (stereo not shown) [Example P502] | 7.52
NC(=O)C1CC1CC(c1ccc(-c2c(-n3cnnn3)ccc(Cl)c2F)c[n+]1[O-])n1cc(-c2cc[n+]([O-])cc2)cn1 (single isomer, unassigned) [Example P282] | 6.11
O=C(O)c1ccn(CC(c2ccc(-c3c(-n4cnnn4)ccc(Cl)c3F)c[n+]2[O-])n2cc(-c3ccncc3)cn2)n1 (stereo not shown) [Example P442] | ~6.86
[O-][n+]1cc(-c2c(-n3cnnn3)ccc(Cl)c2F)ccc1C(Cn1cccn1)n1cc(-c2ccnc(C(F)(F)F)c2)cn1 (single isomer, unassigned) [Example P513] | 8.28
[O-][n+]1cc(-c2c(-n3cnnn3)ccc(Cl)c2F)ccc1[C@@H](CC1CCC1)n1cc(-c2cn(C(F)F)nn2)cn1 [Example P657] | 6.33
NC(=O)C1CC1CC(c1ccc(-c2cc(Cl)ccc2-n2cnnn2)c[n+]1[O-])n1cc(-c2ccc(C(=O)O)cc2)cn1 (stereo not shown) [Example P113] | 6.54
O=C(O)C1CCCN(C(=O)C2CC2CC(c2ccc(-c3c(-n4cnnn4)ccc(Cl)c3F)c[n+]2[O-])n2cc(-c3ccccc3)cn2)C1 (stereo not shown) [Example P223] | 6.10
Cc1cc(-c2cnn(C(CCOC(F)F)c3ccc(-c4c(-n5cnnn5)ccc(Cl)c4F)c[n+]3[O-])c2)ccn1 (stereo not shown) [Example P307] | 8.11
Cn1ncnc1-c1cnn([C@H](CCOC(F)F)c2ccc(-c3cc(Cl)ccc3-n3cc(C(F)(F)F)nn3)c[n+]2[O-])c1 [Example P805] | 6.59
O=c1ccccn1CC(c1ccc(-c2c(-n3cnnn3)ccc(Cl)c2F)c[n+]1[O-])n1cc(-c2cc[n+]([O-])c(C(F)F)c2)cn1 (single isomer, unassigned) [Example P373] | 6.79
[2H]C([2H])(CC(c1ccc(-c2cc(Cl)ccc2C#N)c[n+]1[O-])n1cc(-c2ncnn2C(F)F)cn1)OC(F)F (single isomer, unassigned) [Example Q53] | 6.65
COc1cc(C(CC2CC2)n2cc(-c3cnn(C(C)C)c(=O)c3)cn2)[n+]([O-])cc1-c1c(-n2cnnn2)ccc(Cl)c1F (stereo not shown) [Example P161] | 7.12
Cc1nnc(CC(c2ccc(-c3c(-n4cc(C(F)(F)F)nn4)ccc(Cl)c3F)c[n+]2[O-])n2cc(-c3ccc(C(N)=O)c(F)c3)cn2)o1 (stereo not shown) [Example P927] | 8.12
CCOc1cc(C(CC2CC2)n2cc(-c3ccncc3)cn2)[n+]([O-])cc1-c1c(-n2cnnn2)ccc(Cl)c1F (stereo not shown) [Example P251] | 8.60
[O-][n+]1cc(-c2c(-n3cnnn3)ccc(Cl)c2F)ccc1[C@@H](Cc1ccc(F)cc1)n1cc(-c2cnnn2C(F)F)cn1 [Example P599] | 8.40
NC(=O)c1ccc(-c2cnn(C(Cc3ccn(C(F)F)n3)c3ccc(-c4c(-n5cc(C(F)(F)F)nn5)ccc(Cl)c4F)c[n+]3[O-])c2)cc1 (single isomer, unassigned) [Example P907] | 7.15
Cn1ncnc1-c1cnn(C(CC2CNCCO2)c2ccc(-c3c(-n4cc(C(F)(F)F)nn4)ccc(Cl)c3F)c[n+]2[O-])c1 (stereo not shown) [Example P934] | 6.49
CCCC(c1ccc(-c2c(-n3cnnn3)ccc(Cl)c2F)c[n+]1[O-])n1cc(-c2ccc(NC(=O)OC)cc2)cn1 (single isomer, unassigned) [Example P158] | 7.35
[O-][n+]1cc(-c2c(-n3cnnn3)ccc(Cl)c2F)ccc1C(Cn1cc(F)cn1)n1cc(-c2cc(C(F)(F)F)ncn2)cn1 (stereo not shown) [Example P468] | 6.80
Nc1ccc(-c2cnn(C(CC3CC3)c3ccc(-c4c(-n5cnnn5)ccc(Cl)c4F)c[n+]3[O-])c2)c(Cl)n1 (single isomer, unassigned) [Example P178] | 7.67
N#Cc1cnn(CC(c2ccc(-c3c(-n4cc(C(F)(F)F)nn4)ccc(Cl)c3F)c[n+]2[O-])n2cc(-c3ccc(C(N)=O)c(F)c3)cn2)c1 (stereo not shown) [Example P955] | 6.21

Compound | pIC50
CC(C)(C)OCC[C@H](c1ccc(-c2c(-n3cnnn3)ccc(Cl)c2F)c[n+]1[O-])n1cc(-c2ccnn2C(F)F)cn1 [Example P640] | 6.75
COC(=O)N1CCCC(c2cnn(C(CC3CC3)c3ccc(-c4c(-n5cnnn5)ccc(Cl)c4F)c[n+]3[O-])c2)C1 (stereo not shown) [Example P108] | 6.19
Cn1ncnc1-c1cnn(C(Cc2ncco2)c2ccc(-c3c(-n4cc(C(F)(F)F)nn4)ccc(Cl)c3F)c[n+]2[O-])c1 (stereo not shown) [Example P925] | 6.73
Cn1nnc(F)c1-c1cnn(C(Cc2ccn(C(F)F)n2)c2ccc(-c3c(-n4cc(Cl)nn4)ccc(Cl)c3F)c[n+]2[O-])c1 (stereo not shown) [Example P795] | 7.49
[O-][n+]1cc(-c2c(-n3cnnn3)ccc(Cl)c2F)ccc1C(CC1CC1)n1cc(-c2ccnc(F)c2)cn1 (single isomer, unassigned) [Example P264] | 7.33
[O-][n+]1cc(-c2c(-n3cnnn3)ccc(Cl)c2F)ccc1C(CCOC(F)F)n1cc(-c2c(Cl)ncn2C(F)F)cn1 (single isomer, unassigned) [Example P843] | ~7.15
[O-][n+]1cc(-c2c(-n3cnnn3)ccc(Cl)c2F)ccc1C(CC1CC1)n1cc(-c2scnc2C(F)(F)F)cn1 (stereo not shown) [Example P540] | 6.33
[O-][n+]1cc(-c2cc(Cl)ccc2-n2cnnn2)ccc1C(Cn1cc2c(n1)COCC2)n1cc(-c2ccnc(C(F)(F)F)c2)cn1 (stereo not shown) [Example P388] | 6.90
Nc1ccc(-c2cnn(C(Cn3cc(F)cn3)c3ccc(-c4c(-n5cnnn5)ccc(Cl)c4F)c[n+]3[O-])c2)c(F)n1 (single isomer, unassigned) [Example P416] | 8.48
NC(=O)c1ccc(-c2cnn([C@H](CCOC(F)F)c3ccc(-c4cc(Cl)ccc4-n4cc(C(F)(F)F)nn4)c[n+]3[O-])c2)cc1F [Example P859] | 7.54
O=C(NC1CC1)c1ccc(-c2cnn(C(CC3CCCCO3)c3ccc(-c4c(-n5cnnn5)ccc(Cl)c4F)c[n+]3[O-])c2)cc1 (single isomer, unassigned) [Example P80] | 7.27
COC(=O)N(C)CC(c1ccc(-c2c(-n3cnnn3)ccc(Cl)c2F)c[n+]1[O-])n1cc(-c2ccncc2)cn1 (stereo not shown) [Example P303] | 7.49
COCc1ccnn1CC(c1ccc(-c2c(-n3cnnn3)ccc(Cl)c2F)c[n+]1[O-])n1cc(-c2ccnc(C(F)(F)F)c2)cn1 (stereo not shown) [Example P464] | 6.73
Cc1nc(N)ccc1-c1cnn(C(CCOC(F)F)c2ccc(-c3c(-n4cnnn4)ccc(Cl)c3F)c[n+]2[O-])c1 (single isomer, unassigned) [Example P343] | 6.11
NC(=O)C1CC1CC(c1ccc(-c2c(-n3cnnn3)ccc(Cl)c2F)c[n+]1[O-])n1cc(-c2ccc(N)nc2F)cn1 (single isomer, unassigned) [Example P340] | 7.41
[O-][n+]1cc(-c2c(-n3cnnn3)ccc(Cl)c2F)ccc1C(Cn1cc(F)cn1)n1cc(-c2ccnc(C(F)(F)F)n2)cn1 (stereo not shown) [Example P469] | 7.44
Cn1nnc(F)c1-c1cnn(C(Cc2ccn(C(F)F)n2)c2ccc(-c3c(-n4cc(Cl)nn4)ccc(Cl)c3F)c[n+]2[O-])c1 (stereo not shown) [Example P797] | 7.62
COCC[C@H](c1ccc(-c2c(-n3cnnn3)ccc(Cl)c2F)c[n+]1[O-])n1cc(-c2ccnn2C(F)F)cn1 [Example P561] | 7.11
[O-][n+]1ccc(-c2cnn(C(Cn3cc(F)cn3)c3ccc(-c4c(-n5cnnn5)ccc(Cl)c4F)c[n+]3[O-])c2)cc1C(F)F (single isomer, unassigned) [Example P406] | 7.56
[O-][n+]1cc(-c2c(-n3cnnn3)ccc(Cl)c2F)ccc1C(Cn1cc(-c2ccccn2)cn1)n1cc(-c2ccccn2)cn1 (single isomer, unassigned) [Example P516] | 6.86
CN1CCN(CC(c2ccc(-c3c(-n4cnnn4)ccc(Cl)c3F)c[n+]2[O-])n2cc(-c3ccnc(C(F)(F)F)c3)cn2)C1=O (single isomer, unassigned) [Example P433] | 6.98
Cc1cc(-c2cnn(C(Cn3cc(F)cn3)c3ccc(-c4c(-n5cnnn5)ccc(Cl)c4F)c[n+]3[O-])c2)ccn1 (stereo not shown) [Example P474] | 7.88
CC(C)n1ccc(C[C@@H](c2ccc(-c3c(-n4cnnn4)ccc(Cl)c3F)c[n+]2[O-])n2cc(-c3ccnc(C(F)(F)F)c3)cn2)n1 [Example P651] | 6.51
NC(=O)c1ccc(-c2cnn(C(Cc3ccn(C(F)F)n3)c3ccc(-c4c(-n5cc(C(F)(F)F)nn5)ccc(Cl)c4F)c[n+]3[O-])c2)cc1F (single isomer, unassigned) [Example P906] | 8.19
[O-][n+]1cc(-c2c(-n3cnnn3)ccc(Cl)c2F)ccc1[C@@H](Cc1cnn(C(F)F)n1)n1cc(-c2ccnc(C(F)(F)F)c2)cn1 [Example P742] | 7.72
[O-][n+]1cc(-c2c(-n3cnnn3)ccc(Cl)c2F)ccc1C(CC1CC1)n1cc(-c2cnsc2)cn1 (stereo not shown) [Example P456] | 6.20
[O-][n+]1cc(-c2c(-n3cnnn3)ccc(Cl)c2F)ccc1C(CC1CC1)n1cc(-c2ccnc(OC(F)F)c2)cn1 (stereo not shown) [Example P313] | 6.82
